The values below are quoted from earlier work in paper PMC4360375 (Journal of Medicinal Chemistry, 2015).

For one series, the system named is GABA uptake, rat synaptosome. Particulars: literature data set; ref 10.1016/S0968-0896(01)00148-1; cited from earlier work.
What is called pIC50 is −log10 of the IC50, conventionally taken in molar units. Take `O=C(O)[C@@H]1CCCN(CCO/N=C(\c2ccccc2)C2CC2)C1` [An_2001/6_14, O(\N=C(\C1CC1)/c1ccccc1)CCN1C[C@@H](CCC1)C(O)=O]: the pIC50 was 5.907.

Regarding `CC(C)C/C(=N/OCCN1CCC[C@@H](C(=O)O)C1)c1ccccc1` [An_2001/6_15, O(\N=C(\CC(C)C)/c1ccccc1)CCN1C[C@@H](CCC1)C(O)=O], the pIC50 is recorded as 6.553. For the molecule `O=C(O)[C@@H]1CCCN(CCO/N=C(/Cc2ccccc2)c2ccccc2)C1` [An_2001/6_16, O(\N=C(\Cc1ccccc1)/c1ccccc1)CCN1C[C@@H](CCC1)C(O)=O], the pIC50 is listed as 6.87. For the molecule `O=C(O)[C@@H]1CCCN(CCO/N=C(/Cc2ccc(F)cc2)c2ccc(F)cc2)C1` [An_2001/6_17, Fc1ccc(cc1)C\C(=N\OCCN1C[C@@H](CCC1)C(O)=O)\c1ccc(F)cc1], the pIC50 was 6.036. For `O=C(O)[C@@H]1CCCN(CCO/N=C(/Cc2ccccc2F)c2ccccc2F)C1` [An_2001/6_18, Fc1ccccc1C\C(=N\OCCN1C[C@@H](CCC1)C(O)=O)\c1ccccc1F], the pIC50 is given as 7.097. As for `O=C(O)[C@@H]1CCCN(CCON=C(Cc2ccccc2)Cc2ccccc2)C1` [An_2001/6_19, O(\N=C(\Cc1ccccc1)/Cc1ccccc1)CCN1C[C@@H](CCC1)C(O)=O], the pIC50 is reported as 5.987. As for `CC/C=C(/C=N/OCCN1CCC[C@@H](C(=O)O)C1)c1ccccc1` [An_2001/6_20, O(\N=C\C(=C\CC)\c1ccccc1)CCN1C[C@@H](CCC1)C(O)=O], the pIC50 is 6.125. In the case of `CC(C)/C=C(/C=N/OCCN1CCC[C@@H](C(=O)O)C1)c1ccccc1` [An_2001/6_21, O(\N=C\C(=C\C(C)C)\c1ccccc1)CCN1C[C@@H](CCC1)C(O)=O], the pIC50 was 6.569.

On to `CC(C)C/C=C(/C=N/OCCN1CCC[C@@H](C(=O)O)C1)c1ccccc1` [An_2001/6_22, O(\N=C\C(=C\CC(C)C)\c1ccccc1)CCN1C[C@@H](CCC1)C(O)=O], for which the pIC50 was 6.538. In the case of `O=C(O)[C@@H]1CCCN(CCO/N=C/C2(c3ccccc3)CCCC2)C1` [An_2001/6_23, O(\N=C\C1(CCCC1)c1ccccc1)CCN1C[C@@H](CCC1)C(O)=O], the pIC50 is given as 6.337. For the molecule `O=C(O)[C@@H]1CCCN(CCO/N=C2\CCCC[C@@H]2c2ccccc2)C1` [An_2001/6_24, O(\N=C\1/CCCC[C@@H]/1c1ccccc1)CCN1C[C@@H](CCC1)C(O)=O], the pIC50 was 6.489. As for `O=C(O)[C@@H]1CCCN(CCO/N=C2\CCCC=C2c2ccccc2)C1` [An_2001/6_25, O(\N=C\1/CCCC=C/1c1ccccc1)CCN1C[C@@H](CCC1)C(O)=O], the pIC50 is 6.456. Regarding `O=C(O)[C@@H]1CCCN(CCO/N=C2\CCCC\C2=C/c2ccccc2)C1` [An_2001/6_26, O(\N=C\1/CCCC/C/1=C\c1ccccc1)CCN1C[C@@H](CCC1)C(O)=O], the pIC50 is 5.013. Regarding `O=C(O)[C@@H]1CCCN(CCO/N=C2\c3ccccc3CC[C@@H]2c2ccccc2)C1` [An_2001/6_27, O(\N=C\1/c2c(CC[C@@H]/1c1ccccc1)cccc2)CCN1C[C@@H](CCC1)C(O)=O], the pIC50 was 6.058. As to `O=C(O)[C@@H]1CCCN(CCO/N=C2\C[C@H](c3ccccc3)c3ccccc32)C1` [An_2001/6_28, O(\N=C\1/C[C@@H](c2c/1cccc2)c1ccccc1)CCN1C[C@@H](CCC1)C(O)=O], the pIC50 is 5.852.

In the case of `O=C(O)[C@@H]1CCCN(CCOc2ccccc2)C1` [An_2001/6_32, O(CCN1C[C@@H](CCC1)C(O)=O)c1ccccc1], the pIC50 is reported as 5.046. Consider `O=C(O)[C@@H]1CCCN(CCOc2ccccc2-c2ccccc2)C1` [An_2001/6_33, O(CCN1C[C@@H](CCC1)C(O)=O)c1ccccc1-c1ccccc1], for which the pIC50 was 5.235.

Staying with this series, now noted: literature data set; ref 10.1021/jm980492e; cited from earlier work.
Turning to `O=C(O)[C@@H]1CCCN(CCOCC=C(c2ccc(F)cc2)c2ccc(F)cc2)C1` [An_1999/4_(R)-26, Fc1ccc(cc1)\C(=C\COCCN1C[C@@H](CCC1)C(O)=O)\c1ccc(F)cc1], the pIC50 was 5.836. With `O=C(O)[C@@H]1CCCN(CCCCC=C(c2ccccc2)c2ccccc2)C1` [An_1999/4_(R)-27, OC(=O)[C@@H]1CCCN(C1)CCCC\C=C(\c1ccccc1)/c1ccccc1], the negative logarithm of the IC50 (pIC50) is 5.646.

`O=C(O)[C@@H]1CCCN(CCCCCCC=C(c2ccccc2)c2ccccc2)C1` [An_1999/4_(R)-28, OC(=O)[C@@H]1CCCN(C1)CCCCCC\C=C(\c1ccccc1)/c1ccccc1]: the pIC50 was 5.866. On to `Cc1ccccc1[C@H](CCOCCN1CCC[C@@H](C(=O)O)C1)c1ccccc1` [An_1999/4_(R)-31, O(CC[C@@H](c1ccccc1C)c1ccccc1)CCN1C[C@@H](CCC1)C(O)=O], for which the pIC50 is 7.066. Regarding `Cc1ccccc1C(CCOCCN1CCC[C@@H](C(=O)O)C1)c1ccccc1C` [An_1999/4_(R)-32, O(CCC(c1ccccc1C)c1ccccc1C)CCN1C[C@@H](CCC1)C(O)=O], the pIC50 is reported as 6.444.

On to `O=C(O)[C@@H]1CCCN(CCOCCC(c2ccc(F)cc2)c2ccc(F)cc2)C1` [An_1999/4_(R)-33, Fc1ccc(cc1)C(CCOCCN1C[C@@H](CCC1)C(O)=O)c1ccc(F)cc1], for which the pIC50 is listed as 6.167. As for `CN(CCC(c1ccccc1)c1ccccc1)CCN1CCC[C@@H](C(=O)O)C1` [An_1999/4_(R)-35, OC(=O)[C@@H]1CCCN(C1)CCN(CCC(c1ccccc1)c1ccccc1)C], the pIC50 is 5.244.

The same series, now with this note: literature data set; ref 10.1021/jm990513k; cited from earlier work.
On to `O=C(O)[C@@H]1CCCN(CCON=C2c3ccccc3CCc3ccccc32)C1` [An_2001/5_16, O(\N=C/1\c2c(CCc3c\1cccc3)cccc2)CCN1C[C@@H](CCC1)C(O)=O], for which the pIC50 is reported as 5.936. With `O=C(O)[C@@H]1CCCN(CCON=C2c3cc(Cl)ccc3CCc3ccc(Cl)cc32)C1` [An_2001/5_17, Clc1cc\2c(CCc3c(cc(Cl)cc3)/C/2=N\OCCN2C[C@@H](CCC2)C(O)=O)cc1], the pIC50 is recorded as 5.259. `O=C(O)[C@@H]1CCCN(CCOC=C2c3ccccc3CCc3ccccc32)C1` [An_2001/5_18, O(\C=C/1\c2c(CCc3c\1cccc3)cccc2)CCN1C[C@@H](CCC1)C(O)=O]: the pIC50 is reported as 5.662. For the molecule `O=C(O)[C@@H]1CCCN(CCOCCn2c3ccccc3c3ccccc32)C1` [An_2001/5_19, O(CCN1C[C@@H](CCC1)C(O)=O)CCn1c2c(c3c1cccc3)cccc2], the pIC50 was 4.398. For `O=C(O)[C@@H]1CCCN(CCOCCN2c3ccccc3Oc3ccccc32)C1` [An_2001/5_20, O1c2c(N(c3c1cccc3)CCOCCN1C[C@@H](CCC1)C(O)=O)cccc2], the pIC50 is given as 5.836. Turning to `O=C(O)[C@@H]1CCCN(CCOCCN2c3ccccc3Sc3ccccc32)C1` [An_2001/5_21, S1c2c(N(c3c1cccc3)CCOCCN1C[C@@H](CCC1)C(O)=O)cccc2], the pIC50 was 6.509. `O=C(O)[C@H]1CCCN(CCOCCN2c3ccccc3Sc3ccc(C(F)(F)F)cc32)C1` [An_2001/5_22, S1c2c(N(c3c1cccc3)CCOCCN1C[C@H](CCC1)C(O)=O)cc(cc2)C(F)(F)F]: the pIC50 is given as 6.979.

For `O=C(O)[C@@H]1CCCN(CCOCCN2c3ccccc3CCc3ccccc32)C1` [An_2001/5_23, O(CCN1C[C@@H](CCC1)C(O)=O)CCN1c2c(CCc3c1cccc3)cccc2], the pIC50 is 6.745. `O=C(O)C1=CCCN(CCOCCN2c3ccccc3CCc3ccccc32)C1` [An_2001/5_24, O(CCN1CC(=CCC1)C(O)=O)CCN1c2c(CCc3c1cccc3)cccc2]: the pIC50 is 6.194. For the molecule `O=C(O)[C@@H]1CCCN(CCOCCN2c3ccccc3C=Cc3ccccc32)C1` [An_2001/5_26, O(CCN1C[C@@H](CCC1)C(O)=O)CCN1c2c(C=Cc3c1cccc3)cccc2], the pIC50 is recorded as 6.187.

For the molecule `O=C(O)[C@@H]1CCCN(CCOCCN2c3ccccc3CCc3ccc(Cl)cc32)C1` [An_2001/5_27, Clc1cc2N(c3c(CCc2cc1)cccc3)CCOCCN1C[C@@H](CCC1)C(O)=O], the pIC50 is recorded as 7.155. Turning to `O=C(O)[C@@H]1CCCN(CCOCCN2c3cc(Cl)ccc3CCc3ccc(Cl)cc32)C1` [An_2001/5_28, Clc1cc2N(c3cc(Cl)ccc3CCc2cc1)CCOCCN1C[C@@H](CCC1)C(O)=O], the pIC50 is 7.155. In the case of `O=C(O)[C@@H]1CCCN(CCOCCN2c3ccccc3CCc3ccc(F)cc32)C1` [An_2001/5_29, Fc1cc2N(c3c(CCc2cc1)cccc3)CCOCCN1C[C@@H](CCC1)C(O)=O], the pIC50 is listed as 6.577.

In the case of `O=C(O)[C@@H]1CCCN(CCOCCN2c3ccc(F)cc3CCc3cc(F)ccc32)C1` [An_2001/5_30, Fc1cc2CCc3cc(F)ccc3N(c2cc1)CCOCCN1C[C@@H](CCC1)C(O)=O], the pIC50 is reported as 6.602. Turning to `O=C(O)[C@@H]1CCCN(CCOCCN2c3ccc(Br)cc3CCc3cc(Br)ccc32)C1` [An_2001/5_31, Brc1cc2CCc3cc(Br)ccc3N(c2cc1)CCOCCN1C[C@@H](CCC1)C(O)=O], the pIC50 is 5.987.

For the molecule `O=C(O)[C@@H]1CCCN(CCOCCCN2c3ccccc3CCc3ccccc32)C1` [An_2001/5_32, O(CCCN1c2c(CCc3c1cccc3)cccc2)CCN1C[C@@H](CCC1)C(O)=O], the pIC50 is listed as 6.155.

With `O=C(O)[C@@H]1CCCN(CCOCCN2c3ccccc3CCCc3ccccc32)C1` [An_2001/5_33, O(CCN1C[C@@H](CCC1)C(O)=O)CCN1c2c(CCCc3c1cccc3)cccc2], the pIC50 is recorded as 6.071. In the case of `O=C(O)[C@@H]1CCCN(CCOCC=C2c3ccccc3CCc3ccccc32)C1` [An_2001/5_34, O(CCN1C[C@@H](CCC1)C(O)=O)C\C=C/1\c2c(CCc3c\1cccc3)cccc2], the pIC50 is reported as 6.114. For the molecule `O=C(O)[C@@H]1CCCN(CCOC/C=C2\c3ccccc3CCc3ccc(Cl)cc32)C1` [An_2001/5_35, Clc1cc\2c(CCc3c(cccc3)/C/2=C\COCCN2C[C@@H](CCC2)C(O)=O)cc1], the pIC50 is on record as 5.603. As to `O=C(O)[C@@H]1CCCN(CCCOCC=C2c3ccccc3CCc3ccccc32)C1` [An_2001/5_36, O(CCCN1C[C@@H](CCC1)C(O)=O)C\C=C/1\c2c(CCc3c\1cccc3)cccc2], the pIC50 is listed as 6.337. For `O=C(O)[C@@H]1CCCN(CCOCCC2c3ccccc3CCc3ccccc32)C1` [An_2001/5_37, O(CCC1c2c(CCc3c1cccc3)cccc2)CCN1C[C@@H](CCC1)C(O)=O], the pIC50 is given as 6.252. On to `O=C(O)C1=CCCN(CCOCCC2c3ccccc3CCc3ccccc32)C1` [An_2001/5_38, O(CCC1c2c(CCc3c1cccc3)cccc2)CCN1CC(=CCC1)C(O)=O], for which the pIC50 is 5.921.
